This is an account of results in patent US20240390465A1, “Endostatin Peptides for the Treatment of Tumors, Fibrosis and Acute Lung Injury” (MUSC Foundation for Research Development, priority 2021, published 2024).

Residues, ends and D or L forms follow the SMILES beside them. *: point of attachment. Biotin = O=C1N[C@H]2[C@H](CS[C@H]2CCCCC(=O)*)N1; Ahx = NCCCCCC(=O)O

Data set [1] relates to me-38 colon adenocarcinoma tumor cells. Nature of the data set: Colon adenocarcinoma tumor growth in mice, peptide by oral gavage. The class given is in vivo. Particulars: sMIC tolerant transgenic mice, 100 μg/mouse oral gavage twice/week. The method, then: For each of the experiments, descriptive statistics (means and standard deviations) for tumor volumes were calculated over time for each experimental group (i.e. Experiment 1: Control vs. BioE4 (FIG. 1); Experiment 2: PBS, Bio96, and BioE4-03 (FIG. 5)). Since tumor growth tends to be curvilinear, general linear mixed models (GLMMs) were created to estimate treatment-specific growth curves over time and to make comparisons between the peptide treatments and control. Separate GLMMs were constructed for each experiment, and each GLMM included random effects for each mouse, to control for the fact that the repeated volume measurements within a given mouse were correlated with one another. […] If a mouse's tumor grew too large, it was sacrificed; however, all tumor volumes measured prior to sacrifice were included in the modeling process. […]
sMIC tolerant transgenic (MB481 strain) mice (Liu et al, Perturbation of NK cell peripheral homeostasis accelerates prostate carcinoma metastasis. J. Clin. Invest. 123:4410, 2013) were injected with 1×10^5 me-38 colon adenocarcinoma tumor cells via subcutaneous injection When tumor size reached approximately 75 mm^3, treatment was started. start treatment at four group. […] Tumor volume was measured 3 times per week. […]

The subject of the next data set is tumors. Nature of the data set: Histologic analysis of tumors (H&E, Masson Trichrome). The class given is in vivo, mouse. The procedure:
Histological analysis of tumors treated with vehicle alone, or with BioE4-03 or Bio96 peptides was performed.

The subject of data set [2] is fibroblasts from lungs of patients with systemic sclerosis (SSc). Nature of the data set: SMA and Collagen 1A2 RNA in SSc lung fibroblasts. The class given is cell-based, human. The method, then: Fibroblasts were treated with TGFbeta with or without peptide Bio96-17 for 48 hours. RNA was extracted and levels of alpha smooth muscle actin (SMA) measured by qRT-PCR.
SSc fibroblasts were treated with 10 μg/ml BioE4-03 for 72 hours. RNA was extracted and used to measure SMA and Collagen 1A2.

For data set [3], the system named is fibroblasts from lungs of patients with Idiopathic Pulmonary Fibrosis (IPF). The experiment in a line: SMA and Collagen 1A2 RNA in IPF lung fibroblasts. As to conditions: IPF lung fibroblasts (FIG. 17). Type of data set: cell-based, human.
Data set [4] relates to TRAMP C-2 mouse prostate tumor cells. The experiment in a line: Prostate tumor growth in mice, peptide by oral gavage. The class given is in vivo. Particulars: C57BL6 mice, TRAMP C-2 tumors, 50 μg/dose oral gavage twice per week, vs water control. The method, then: For each of the experiments, descriptive statistics (means and standard deviations) for tumor volumes were calculated over time for each experimental group (i.e. Experiment 1: Control vs. BioE4 (FIG. 1); Experiment 2: PBS, Bio96, and BioE4-03 (FIG. 5)). Since tumor growth tends to be curvilinear, general linear mixed models (GLMMs) were created to estimate treatment-specific growth curves over time and to make comparisons between the peptide treatments and control. Separate GLMMs were constructed for each experiment, and each GLMM included random effects for each mouse, to control for the fact that the repeated volume measurements within a given mouse were correlated with one another. Tumor volume served as the dependent variable in each model, while time (in days), time^2, treatment, treatment×time, and treatment×time^2 were included as independent variables. Using these models, the estimated mean tumor volumes at specific selected time points and the mean rate of change in the tumor volumes at specific selected time points were compared. If a mouse's tumor grew too large, it was sacrificed; however, all tumor volumes measured prior to sacrifice were included in the modeling process. […]
Two groups of wild type C57BL6 mice from Jax Labs were injected with TRAMP C-2 mouse prostate tumor cells in the right flank. […] Tumors were measured 3 times/week. […]

On to `CC(C)C[C@H](NC(=O)[C@H](CC(C)C)NC(=O)[C@H](CO)NC(=O)[C@H](CO)NC(=O)[C@H](C)NC(=O)[C@H](CCC(N)=O)NC(=O)CNC(=O)[C@@H](NC(=O)[C@H](C)NC(=O)CCCC[C@@H]1SC[C@@H]2NC(=O)N[C@@H]21)[C@@H](C)O)C(N)=O` [Bio96, Biotin-NH2-ATGQASSLL-CONH2] (Biotin-ATGQASSLL-NH2), for which, in data set [1] (PBS control 151.1 mm^3 per day), the “mean rate of increase in the tumor volume at day 21 (model-based estimate)” value is on record as 90.6 mm^3 per day. In addition, the “mean tumor volume at day 21 (model-based estimate)” value in data set [1] (PBS control 1492.1 mm^3) was 871.4 mm^3. For the same molecule, the tumor cell arrangement result in the data set with tumors (H&E staining, tumors from treated mice) is “looser cell arrangement”. Moreover, the “collagen bundles in the tumors” value in the data set with tumors (Masson Trichrome stain, compared to vehicle treated mice) is listed as “thinner collagen bundles”.
In the case of `CC(C)C[C@H](NC(=O)[C@H](CC(C)C)NC(=O)[C@H](CCCNC(=N)N)NC(=O)CNC(=O)CNC(=O)[C@H](CC(C)C)NC(=O)[C@H](CC(C)C)NC(=O)[C@H](CO)NC(=O)[C@H](CO)NC(=O)[C@H](C)NC(=O)[C@H](CCC(N)=O)NC(=O)CNC(=O)[C@@H](NC(=O)[C@H](C)NC(=O)CCCC[C@@H]1SC[C@@H]2NC(=O)N[C@@H]21)[C@@H](C)O)C(=O)NCC(=O)N[C@@H](CCC(N)=O)C(=O)N[C@@H](CO)C(=O)N[C@@H](C)C(=O)N[C@@H](C)C(=O)N[C@@H](CO)C(=O)N[C@@H](CS)C(=O)N[C@@H](Cc1c[nH]cn1)C(=O)N[C@@H](Cc1c[nH]cn1)C(=O)N[C@@H](C)C(N)=O` [Bio96-17] (Biotin-ATGQASSLLGGRLLGQSAASCHHA-NH2), in data set [2] (Bio96-17 treatment (FIG. 15)), the Coll1A2 levels result was “significant reduction” and the SMA levels result is recorded as “significant reduction”.
For `CC(C)C[C@H](NC(=O)[C@H](CC(C)C)NC(=O)[C@H](CCCNC(=N)N)NC(=O)CNC(=O)CNC(=O)[C@H](CC(C)C)NC(=O)[C@H](CC(C)C)NC(=O)[C@H](CO)NC(=O)[C@H](CO)NC(=O)[C@H](C)NC(=O)[C@H](CCC(N)=O)NC(=O)CNC(=O)[C@@H](NC(=O)[C@H](C)NC(=O)[C@H](CO)NC(=O)[C@@H]1CCCN1C(=O)[C@H](C)NC(=O)[C@H](CCC(=O)O)NC(=O)[C@@H](NC(=O)[C@H](CCCNC(=N)N)NC(=O)[C@H](Cc1c[nH]c2ccccc12)NC(=O)[C@@H](NC(=O)[C@H](CCC(=O)O)NC(=O)[C@H](CS)NC(=O)[C@H](Cc1ccc(O)cc1)NC(=O)[C@H](CO)NC(=O)CCCCCNC(=O)CCCC[C@@H]1SC[C@@H]2NC(=O)N[C@@H]21)[C@@H](C)O)[C@@H](C)O)[C@@H](C)O)C(=O)NCC(=O)N[C@@H](CCC(N)=O)C(=O)N[C@@H](CO)C(=O)N[C@@H](C)C(=O)N[C@@H](C)C(=O)N[C@@H](CO)C(=O)N[C@@H](CS)C(=O)N[C@@H](Cc1c[nH]cn1)C(=O)N[C@@H](Cc1c[nH]cn1)C(=O)N[C@@H](C)C(N)=O` [BioE4-03] ({Biotin-Ahx}-SYCETWRTEAPSATGQASSLLGGRLLGQSAASCHHA-NH2), the Coll1A2 levels entry in data set [2] (10 μg/ml, 72 hours (FIG. 16)) was “significant reduction”; in data set [3], “trend towards decrease”. The SMA levels result in data set [2] (10 μg/ml, 72 hours (FIG. 16)) is “significant reduction”; in data set [3], “trend towards decrease”.
In the case of “Biotin-SYCETWRTEAPSATGQASSLLGGRLLGQSAASCHHAYIVLCIENSFMT-NH2 (cysteines drawn unpaired) [BioE4]”, in data set [4], the “mean rate of increase in the tumor volume on day 15 (model-based estimate)” value is on record as “significantly (p=0.02) greater in the Control group when compared to the BioE4 group” and the “mean tumor volume at day 15 (model-based estimate)” value was “significantly (p=0.0001) greater in the Control group when compared to the BioE4 group”.
